One block for each compound: values may come before it. Where no end group is shown, it is not given here.
Columns and labels:
[1] = tested on: crypts and tumors of the small and large intestine; experiment: Bromodeoxyuridine in situ proliferation index in Min mice; type: in vivo, mouse; conditions: hypergastrinemic mice
Procedure: One hour prior to termination, mice were injected with DNA analogue bromodeoxyuridine in order to determine the comparative in situ proliferation activity. The samples were formalin fixed, paraffin embedded, sections were cut and stained with an anti-bromodeoxyuridine antibody.
Serum gastrin level was measured by RIA. Prior to end of treatment, proliferative index was determined by the bromodeoxyuridine method. • Group 1.

[2] = tested on: Min mouse model of familial adenomatous polyposis
Procedure: Accordingly, the effect of gastrin neutralization on Min mouse survival was determined.
The Min mice used in the study were bred within the Academic Unit of Cancer Studies at Nottingham University (U.K.) on a C57/BL background. […] The Min positive mice were then placed into each arm of the therapy on an ongoing basis.
Gastrin neutralization was achieved by using an immunogen, i.e. the gastrin immunogen preparation, which is composed of the amino terminal domain of gastrin-17 linked, via an amino acid spacer, to diphtheria toxoid which acts as the immunogenic carrier. The antibodies raised by virtue of the design of the immunogen, cross-react with both amidated and glycine-extended gastrin-17, known proliferative forms of gastrin. Min mice were immunized s.c. with the hG17-DT immunogen (100 mg/mouse) at week 4, with subsequent injections at 3 weekly intervals. […] The hG17-DT immunogen was administered to mice at 4 weeks of age to examine its effect on mice with an established tumor burden.
• Group 1. OME 75 mg/kg daily oral treatment • Group 2. OME+GSI 100 mg oral dose/mouse day 0 and every 3 weeks • Group 3. Oral vehicle+control immunogen • Group 4. Oral vehicle−control immunogen

[3] = tested on: plasma gastrin; conditions: 400 μmol/kg, 14 mg/kg, 10 weeks; cited from earlier work
[4] = tested on: plasma gastrin; conditions: cited from earlier work
[5] = tested on: plasma gastrin; conditions: cited from earlier work; remark: listed apart in the source
[6] = target: rabbit anti-human G17(1-9):DT (N-terminal) antiserum; experiment: Displacement of radiolabelled G17 from N-terminal specific antiserum; type: binding; conditions: antiserum 100 μg/ml on solid phase, radiolabelled G17 100 pg/ml; FIG. 11
Procedure: (§1) Antisera were absorbed onto a solid phase at a concentration of 100 μg/ml and displacement was determined in a competitive assay with a fixed concentration of radiolabelled G17 (100 pg/ml) and increasing concentrations of unlabelled ligands (1-25,000 pg/ml).

[7] = target: rabbit anti-G17 (C-terminal) antiserum; experiment: Displacement of radiolabelled G17 from C-terminal specific antiserum; type: binding; conditions: antiserum 100 μg/ml on solid phase, radiolabelled G17 100 pg/ml; FIG. 12
Procedure: as §1

[8] = tested on: polypoid carcinomas from the large and small intestine of Min mice; experiment: In vitro proliferation of Min mouse polypoid carcinomas, tetrazolium-based colorimetric assay; type: cell-based
Procedure: Polypoid carcinomas have been established in vitro from the large and small intestine of Min mice. Proliferation was assessed by a tetrazolium-based colorimetric ELISA assay.

[9] = same dose (400 μmol/kg, 14 mg/kg)
[10] = patients receiving 40 mg daily for eight years

Compound: COc1ccc2[nH]c([S+]([O-])Cc3ncc(C)c(OC)c3C)nc2c1 (centres unmarked) [omeprazole]
- proliferating cells, normal colonic mucosa ([1]; increased from 9.46%, p<0.05 Mann-Whitney): 20.1%
- proliferating cells, colonic neoplasia ([1]; increased from 22.3%, p<0.01): 35.0%
- 50% survival ([2]; Example 2, OME 75 mg/kg daily oral, control group 16 weeks, p=0.0001 log rank): 8 weeks
- effect of omeprazole-induced hypergastrinemia on survival of Min mice ([2]; high daily doses of omeprazole): decreases the survival
- median survival ([2]; omeprazole-induced hypergastrinemia, reduced from approximately 10 weeks): ~6 weeks
- ECL density increase at the end of treatment [3]: 37%
- increase in plasma gastrin during treatment [3]: threefold
- stomach weight increase at the end of treatment [3]: 34%
- increase in gastrin compared to controls ([4]; female rats, long-term (1-year) daily 400 μmol/kg, 14 mg/kg): 15 fold
- ECL cell density increase [4, 9]: about 300%
- increase of gastrin levels [4, 9]: 10 fold
- markedly elevated gastrin levels ([5]; occasionally, long term treatment, 20-60 mg/day): 10 fold
- prevalence of micronodular hyperplasia in atrophic gastritis [5, 10]: 48%
- prevalence of micronodular hyperplasia in interstitial gastritis [5, 10]: 19.6%
- prevalence of micronodular hyperplasia in superficial corpus gastritis [5, 10]: 3.6%

- 50% inhibitory concentration (IC50), displacement of radiolabelled G17 [6]: 3.5 ng/mL
- 50% inhibitory concentration (IC50), displacement of radiolabelled G17 [7]: 0.8 ng/mL
Compound: G17: gastrin-17, unlabelled ligand in the displacement assay [Peptide G17]

- IC25, displacement of radiolabelled G17 [7]: 0.5 ng/mL
Compound: G34: gastrin-34, unlabelled ligand in the displacement assay (QLGPQGPPHLVADPSKKQGPWLEEEEEAYGWMDF; ends and bridges not checked; UniProt P01350 59-92, looked up) [Peptide G34]

Compound: amidated gastrin: amidated gastrin added to Min mouse tumor cultures (QGPWLEEEEEAYGWMDF-NH2; ends and bridges not checked; UniProt P01350 76-92, looked up)
- proliferation of large intestinal tumor in vitro [8]: not increased
- proliferation of small intestinal tumor in vitro [8]: not increased
